What was measured:
prostate cancer cells = details: cited from earlier work
[1] = Solid tissue and prostate gland drug quantification 55 days post-implantation; details: for liver level: average; for whole prostate gland level: centre transverse section not included; for level in 5 mm punch biopsies surrounding device implants: prostate tissue within ~5 mm of device
Experimental: (§1) In this study, three canines, at least fifteen months old, were employed. […] An 18-gauge brachytherapy needle (OD 1.27 mm) was used for device implantation. Clinical observations and body weight were recorded.
(§2) 55 days post-implantation, study animals were euthanized and underwent gross necropsy. […] Prostate glands were trimmed and cut in three section perpendicular to the urethra: a cranial (rostral) section, a 3-5 mm transverse section, and a caudal section. […] The transverse piece in its entirety was sent for histopathological evaluation.

[2] = Plasma drug quantification after implantation of two devices into canine prostate; set-up: species or system canines; details: male, dog, in vivo
Experimental: Clinical observations and body weight were recorded.
Placement of devices was confirmed by transrectal ultrasound during implantation and 1, 7, 14, and 28 days post-implantation.
Note that the plasma levels as shown in FIGS. 6A and 6B are in micrograms for the oral dose while the scale is in ng/mL for the device plasma levels.

in vivo = details: male, dog
Experimental: as §1, §2

SMILES: C[C@](O)(CS(=O)(=O)c1ccc(F)cc1)C(=O)Nc1ccc(C#N)c(C(F)(F)F)c1 [R-bicalutamide]
- IC50 (prostate cancer cells): ~1 µM
- level in prostate tissue within ~5 mm of the device (molar) [1]: 1623 ± 562 nM
- whole prostate gland level (molar) [1]: 196.6 ± 23.5 nM
- liver level [1]: 28 ± 9 ng/g
- whole prostate gland level [1]: 86 ± 10 ng/g
- level in 5 mm punch biopsies surrounding device implants [1]: 698 ± 242 ng/g

SMILES: C[C@@](O)(CS(=O)(=O)c1ccc(F)cc1)C(=O)Nc1ccc(C#N)c(C(F)(F)F)c1 [S-bicalutamide]
- liver level [1]: 19 ± 7 ng/g
- whole prostate gland level [1]: 87 ± 11 ng/g
- level in 5 mm punch biopsies surrounding device implants [1]: 727 ± 259 ng/g

SMILES: CC(O)(CS(=O)(=O)c1ccc(F)cc1)C(=O)Nc1ccc(C#N)c(C(F)(F)F)c1 (stereo not shown) [bicalutamide]
- time to plasma steady state [2]: ~4 days
- concentration at 55 day (in vivo; level in 5 mm punch biopsies surrounding device implants): 1430 ± 501 ng/g
- concentration at 55 day (in vivo; liver level): 47 ± 16 ng/g
- concentration at 55 day (in vivo; whole prostate gland level): 172 ± 21 ng/g

Reference: patent US12576063B2, “Implantable drug delivery devices for localized drug delivery” (priority 2020, dated 2026)
